Test results as given in patent US8822500B2, “Tyrosine kinase inhibitors” (Chembridge Corporation, priority 2008, dated 2014).
Like-named read-outs stand apart in the source and are kept apart here.

Experiments:
ALK = ALK (Homo sapiens (Human), UniProt Q9UM73); assay: In vitro kinase activity assay (LANCE TR-FRET); type: biochemical;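 further: kinase reactions with ATP and a poly-GT peptide substrate, phosphorylated product read by time-resolved FRET, 11-point curve from 10^−11 to 10^−5 M, DMSO as negative control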
TrkA = TrkA (Homo sapiens (Human), UniProt P04629); assay: In vitro kinase activity assay (LANCE TR-FRET); type: biochemical;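 further: kinase reaction with poly-GT peptide substrate and ATP, phosphorylated product quantified by time-resolved FRET, eleven-point dose curves from 10^−11 to 10^−5 M in triplicate, DMSO as negative control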
TrkA, sequence (P04629 33-796): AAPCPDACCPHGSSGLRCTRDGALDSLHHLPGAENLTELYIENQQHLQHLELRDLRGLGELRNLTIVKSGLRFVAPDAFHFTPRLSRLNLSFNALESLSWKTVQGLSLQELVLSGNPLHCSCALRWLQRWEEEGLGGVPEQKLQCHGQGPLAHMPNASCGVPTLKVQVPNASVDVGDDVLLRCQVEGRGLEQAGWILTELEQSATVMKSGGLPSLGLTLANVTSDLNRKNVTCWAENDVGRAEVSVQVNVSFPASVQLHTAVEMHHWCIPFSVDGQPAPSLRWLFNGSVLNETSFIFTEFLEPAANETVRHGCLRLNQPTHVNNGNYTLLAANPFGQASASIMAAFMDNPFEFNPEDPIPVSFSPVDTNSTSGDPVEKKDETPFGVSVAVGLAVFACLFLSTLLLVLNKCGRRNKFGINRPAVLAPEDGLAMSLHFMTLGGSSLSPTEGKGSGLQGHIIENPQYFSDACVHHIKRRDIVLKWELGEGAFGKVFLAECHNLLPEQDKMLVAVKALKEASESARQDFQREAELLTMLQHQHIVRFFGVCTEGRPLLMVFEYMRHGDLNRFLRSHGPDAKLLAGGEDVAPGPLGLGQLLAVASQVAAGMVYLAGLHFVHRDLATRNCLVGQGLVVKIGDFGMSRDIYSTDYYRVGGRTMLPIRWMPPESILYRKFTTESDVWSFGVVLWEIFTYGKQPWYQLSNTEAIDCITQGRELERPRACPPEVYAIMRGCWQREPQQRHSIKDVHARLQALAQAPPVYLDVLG

ROS = ROS (Homo sapiens (Human), UniProt P08922); assay: In vitro kinase activity assay (LANCE TR-FRET); type: biochemical
ROS, sequence (P08922 28-2347): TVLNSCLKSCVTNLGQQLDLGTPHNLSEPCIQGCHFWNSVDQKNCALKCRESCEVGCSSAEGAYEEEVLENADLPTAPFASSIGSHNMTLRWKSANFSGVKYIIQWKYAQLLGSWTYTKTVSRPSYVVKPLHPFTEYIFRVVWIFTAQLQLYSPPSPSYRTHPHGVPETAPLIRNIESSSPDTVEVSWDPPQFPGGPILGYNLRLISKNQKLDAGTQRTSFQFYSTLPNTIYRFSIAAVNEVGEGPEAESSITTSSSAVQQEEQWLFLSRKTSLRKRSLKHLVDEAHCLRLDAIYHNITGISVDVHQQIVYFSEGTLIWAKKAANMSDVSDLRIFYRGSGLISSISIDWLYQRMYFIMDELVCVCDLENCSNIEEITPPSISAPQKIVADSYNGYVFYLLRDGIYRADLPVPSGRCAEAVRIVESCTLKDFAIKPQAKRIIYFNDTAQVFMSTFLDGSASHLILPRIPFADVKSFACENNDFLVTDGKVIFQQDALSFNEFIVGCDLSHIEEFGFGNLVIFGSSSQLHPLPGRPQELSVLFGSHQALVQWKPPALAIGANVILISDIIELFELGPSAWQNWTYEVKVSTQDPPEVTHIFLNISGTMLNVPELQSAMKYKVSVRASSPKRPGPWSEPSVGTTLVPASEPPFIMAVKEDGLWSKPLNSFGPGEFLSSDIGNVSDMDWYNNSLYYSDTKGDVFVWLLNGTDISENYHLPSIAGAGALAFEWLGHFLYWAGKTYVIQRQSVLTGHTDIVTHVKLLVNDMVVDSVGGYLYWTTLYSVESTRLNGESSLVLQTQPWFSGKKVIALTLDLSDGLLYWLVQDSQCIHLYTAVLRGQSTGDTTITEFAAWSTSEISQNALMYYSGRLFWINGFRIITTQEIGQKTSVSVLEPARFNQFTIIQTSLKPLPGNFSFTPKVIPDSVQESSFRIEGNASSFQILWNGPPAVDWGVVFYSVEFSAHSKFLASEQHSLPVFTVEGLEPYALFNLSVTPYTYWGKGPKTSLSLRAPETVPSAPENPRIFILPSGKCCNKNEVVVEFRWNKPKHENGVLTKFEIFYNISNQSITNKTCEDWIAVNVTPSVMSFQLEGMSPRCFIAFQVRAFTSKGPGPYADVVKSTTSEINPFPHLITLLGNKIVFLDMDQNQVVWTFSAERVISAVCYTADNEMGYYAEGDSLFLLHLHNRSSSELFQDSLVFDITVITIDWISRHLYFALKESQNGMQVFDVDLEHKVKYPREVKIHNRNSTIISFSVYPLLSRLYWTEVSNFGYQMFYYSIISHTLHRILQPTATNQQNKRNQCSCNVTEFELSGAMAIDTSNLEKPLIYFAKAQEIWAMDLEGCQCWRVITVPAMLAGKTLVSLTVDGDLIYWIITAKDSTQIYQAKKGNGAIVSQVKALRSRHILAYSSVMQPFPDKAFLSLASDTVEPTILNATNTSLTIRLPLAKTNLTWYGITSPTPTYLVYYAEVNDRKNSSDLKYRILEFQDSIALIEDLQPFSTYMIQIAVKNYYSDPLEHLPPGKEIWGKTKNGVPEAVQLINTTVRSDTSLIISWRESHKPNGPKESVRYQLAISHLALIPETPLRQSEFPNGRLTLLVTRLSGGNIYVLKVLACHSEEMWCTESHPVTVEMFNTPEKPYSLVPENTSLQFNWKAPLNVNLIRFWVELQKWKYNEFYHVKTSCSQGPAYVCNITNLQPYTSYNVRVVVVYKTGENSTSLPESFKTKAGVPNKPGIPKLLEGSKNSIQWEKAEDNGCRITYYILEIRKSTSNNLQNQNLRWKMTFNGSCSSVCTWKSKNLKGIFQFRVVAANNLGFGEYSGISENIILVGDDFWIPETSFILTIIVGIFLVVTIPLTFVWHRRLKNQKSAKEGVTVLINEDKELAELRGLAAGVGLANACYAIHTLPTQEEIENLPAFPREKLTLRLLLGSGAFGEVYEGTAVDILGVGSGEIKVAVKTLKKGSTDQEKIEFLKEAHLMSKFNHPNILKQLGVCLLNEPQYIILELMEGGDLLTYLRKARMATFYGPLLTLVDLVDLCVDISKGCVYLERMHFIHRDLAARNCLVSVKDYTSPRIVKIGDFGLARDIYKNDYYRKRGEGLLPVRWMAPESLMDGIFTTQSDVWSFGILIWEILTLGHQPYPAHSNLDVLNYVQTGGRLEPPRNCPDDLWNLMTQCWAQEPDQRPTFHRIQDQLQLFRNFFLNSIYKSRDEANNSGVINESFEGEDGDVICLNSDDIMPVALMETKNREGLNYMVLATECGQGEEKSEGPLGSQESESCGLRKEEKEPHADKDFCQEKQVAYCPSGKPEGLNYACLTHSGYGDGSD

RET = RET (Homo sapiens (Human), UniProt P07949); assay: In vitro kinase activity assay (LANCE TR-FRET); type: biochemical
cMET = cMET (Homo sapiens (Human), UniProt P08581); assay: In vitro kinase activity assay (LANCE TR-FRET); type: biochemical
cMET, sequence (P08581 25-1390): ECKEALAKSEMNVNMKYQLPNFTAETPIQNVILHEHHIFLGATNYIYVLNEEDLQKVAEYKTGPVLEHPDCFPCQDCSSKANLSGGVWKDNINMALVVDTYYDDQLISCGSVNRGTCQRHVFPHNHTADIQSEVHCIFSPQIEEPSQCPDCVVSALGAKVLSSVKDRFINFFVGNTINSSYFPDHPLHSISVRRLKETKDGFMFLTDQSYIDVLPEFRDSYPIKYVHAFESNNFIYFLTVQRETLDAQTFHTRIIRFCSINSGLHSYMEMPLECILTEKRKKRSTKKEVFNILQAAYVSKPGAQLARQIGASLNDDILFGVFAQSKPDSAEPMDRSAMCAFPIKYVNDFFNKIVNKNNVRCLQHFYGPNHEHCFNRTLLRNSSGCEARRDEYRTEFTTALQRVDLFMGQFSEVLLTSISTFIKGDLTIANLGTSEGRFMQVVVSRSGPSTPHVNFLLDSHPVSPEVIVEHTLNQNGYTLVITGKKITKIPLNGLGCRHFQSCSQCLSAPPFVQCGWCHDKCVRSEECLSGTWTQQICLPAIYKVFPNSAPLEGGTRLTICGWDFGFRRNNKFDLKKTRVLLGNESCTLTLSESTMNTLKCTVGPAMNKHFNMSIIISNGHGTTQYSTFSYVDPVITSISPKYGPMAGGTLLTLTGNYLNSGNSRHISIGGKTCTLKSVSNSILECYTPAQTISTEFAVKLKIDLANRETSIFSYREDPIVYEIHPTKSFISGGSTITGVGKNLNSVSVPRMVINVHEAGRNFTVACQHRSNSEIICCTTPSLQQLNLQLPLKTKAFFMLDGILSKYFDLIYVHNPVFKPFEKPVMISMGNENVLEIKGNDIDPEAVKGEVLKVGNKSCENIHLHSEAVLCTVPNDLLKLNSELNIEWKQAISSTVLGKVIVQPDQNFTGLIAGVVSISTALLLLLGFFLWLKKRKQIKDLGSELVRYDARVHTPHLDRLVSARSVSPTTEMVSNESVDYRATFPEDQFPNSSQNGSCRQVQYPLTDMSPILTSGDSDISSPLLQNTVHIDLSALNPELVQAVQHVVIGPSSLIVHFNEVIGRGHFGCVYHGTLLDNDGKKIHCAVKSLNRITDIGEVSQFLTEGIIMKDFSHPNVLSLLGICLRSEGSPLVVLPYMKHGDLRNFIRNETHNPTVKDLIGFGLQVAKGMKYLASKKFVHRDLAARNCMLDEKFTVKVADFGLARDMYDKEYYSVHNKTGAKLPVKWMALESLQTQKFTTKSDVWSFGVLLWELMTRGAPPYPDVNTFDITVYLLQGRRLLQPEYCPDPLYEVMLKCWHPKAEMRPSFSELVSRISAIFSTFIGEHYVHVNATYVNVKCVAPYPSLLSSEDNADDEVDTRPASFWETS

K299 lymphoma cells = assay: Cellular assay, 3 day cell viability (WST-1); type: cell-based; conditions: 72 h, 3 days
U937 lymphoma cells = assay: Cellular assay, 3 day cell viability (WST-1); type: cell-based; conditions: Homo sapiens, U-937, 72 h
SUDHL-1 lymphoma cells = assay: Cellular assay, 3 day cell viability (WST-1); type: cell-based; conditions: Homo sapiens, SU-DHL-1, 72 h
[1] = Metabolic stability, Phase I microsome reactions; type: in vitro ADME, mouse; conditions: 1.0 mg/ml microsomes; for microsomal CLint at 0.5 μM / half-life at 0.5 μM: mouse, liver microsomes, pH 7.4, Phase I only; for microsomal CLint at 0.5 μM: read-out: Mouse LM-P1 CL; for half-life at 0.5 μM: read-out: Mouse LM-P1 Half-life
in vitro [2] = conditions: human, microsomes; for microsomal CLint at 0.5 μM: pH 7.4, Human LM-P1 CL (ul/min/mg); for half-life at 0.5 μM: pH 7.4, Human LM-P1 Half-life (min)
in vitro [3] = conditions: rat, microsomes; for half-life at 0.5 μM: pH 7.4; for microsomal CLint at 0.5 μM: pH 7.4, Rat LM-P1 CL (ul/min/mg)
[4] = target: hERG (human ether-a-go-go related gene) potassium channel (Homo sapiens (Human), UniProt Q12809); assay: hERG potassium channel current, automated patch clamp (PatchXpress 7000A);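 further: Four-point series of 0.3, 3, 10 and 30 µM, two cells recorded per concentration, 5 min exposure at each level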
NB-1 neuroblastoma cells = assay: Cellular assay, 3 day cell viability (WST-1); type: cell-based; conditions: 72 h
[5] = Caco-2 cell permeation study; type: in vitro ADME; conditions: human; for Papp A→B at 2 h, 10 μM: Caco-2, pH 6.5, 10 μM, apical pH 6.5, 2 h; for Papp B→A at 2 h, 10 μM: Caco-2, pH 7.4, 10 μM, basolateral pH 7.4, 2 h; for efflux ratio at 2 h, 10 μM: Caco-2, Caco-2;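 on all read-outs here: Caco-2 monolayers grown for 21–28 days with integrity confirmed by TEER, apical buffer HBSS with MES, basolateral buffer HBSS with HEPES, compound levels quantified by LC/MS/MS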
Caco-2 cells = assay: Caco-2 cell permeation study; type: in vitro ADME; conditions: for Papp (10−6 cm/sec) A to B / Papp (10−6 cm/sec) B to A: 10 μM; for Papp (10−6 cm/sec) A to B: apical pH 6.5, 2 h; for Papp (10−6 cm/sec) B to A: basolateral pH 7.4, 2 h;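 on all read-outs here: Caco-2 monolayers grown for 21–28 days with integrity confirmed by TEER, apical buffer HBSS with MES, basolateral buffer HBSS with HEPES, compound levels quantified by LC/MS/MS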
[6] = Rat pharmacokinetics / bioavailability; type: in vivo; conditions: male, Sprague-Dawley, plasma
[7] = 3 days, WST-1, read-out: U937 IC50
[8] = 3 days, WST-1, read-out: SUDHL-1 IC50

Structure (SMILES)	IC50 (ALK; read-out: ALK (nM) IC50) [nM]	IC50 (ALK; read-out: ALK IC50) [nM]	IC50 (TrkA; read-out: TrKA IC50) [nM]	IC50 (TrkA; read-out: TrkA (nM) IC50) [nM]	IC50 (ROS; read-out: ROS (nM) IC50) [nM]	IC50 (RET; read-out: RET (nM) IC50) [nM]	IC50 (cMET) [nM]	IC50 (K299 lymphoma cells; read-out: K299 IC50) [nM]	IC50 (U937 lymphoma cells; [7]) [µM]	microsomal CLint at 0.5 μM [1] [µL/min/mg]	half-life at 0.5 μM [1] [h]	microsomal CLint at 0.5 μM (in vitro [2]) [µL/min/mg]	half-life at 0.5 μM (in vitro [2]) [h]	half-life at 0.5 μM (in vitro [3]) [h]	microsomal CLint at 0.5 μM (in vitro [3]) [µL/min/mg]	IC50 [4] [nM]	Papp A→B at 2 h, 10 μM [5] [×10⁻⁶ cm/s]	Papp B→A at 2 h, 10 μM [5] [×10⁻⁶ cm/s]	efflux ratio at 2 h, 10 μM [5]	other results
CC(Cc1cc(F)ccc1F)Nc1cc[nH]c(=O)c1-c1nc2cc3c(cc2[nH]1)C(=O)N(CCN(C)C)C3 (racemic) [Compound 18, 2-(4-(1-(2,5-Difluorophenyl)propan-2-ylamino)-2-oxo-1,2-dihydropyridin-3-yl)-6-(2-(dimethylamino)ethyl)-6,7-dihydroimidazo[4,5-f]isoindole-5(1H)-one]	9.16	9	4	4.33	0.688	13.1	1000 to 3000	265	> 3	29.4	0.393	< 5.8	> 2	0.343	33.3	5420				IC50 (SUDHL-1 lymphoma cells; [8]): 0.172 µM
CC(Oc1cc(-c2cnn(C3CCNCC3)c2)cnc1N)c1c(Cl)ccc(F)c1Cl (racemic) [PF2341066, crizotinib, reference compound]																	< 0.2	50.7		IC50 (U937 lymphoma cells; read-out: GTx-U937 IC50 (uM)): 1.67 µM; IC50 (U937 lymphoma cells; read-out: U937 IC50(μM)): 1.67 µM; IC50 (SUDHL-1 lymphoma cells; read-out: GTx-SUDHL-1 IC50 (uM)): 0.132 µM; IC50 (SUDHL-1 lymphoma cells; read-out: SUDHL-1 IC50(μM)): 0.132 µM; IC50 (NB-1 neuroblastoma cells; read-out: GTx-NB-1 IC50 (uM)): 0.167 µM; IC50 (NB-1 neuroblastoma cells; read-out: NB-1 IC50(μM)): 0.167 µM; Papp (10−6 cm/sec) A to B (Caco-2 cells; listed as Pfizer): >0.2 10−6 cm/sec; Papp (10−6 cm/sec) A to B (Caco-2 cells; listed as Pfizer (PF2341066)): <0.2 10−6 cm/sec; Papp (10−6 cm/sec) B to A (Caco-2 cells): 50.7 10−6 cm/sec; MRT ([6]; iv, 10 mg/kg I.V.): 1.88 h; Cmax ([6]; po, 10 mg/kg P.O.): 58.3 ng/mL; Tmax ([6]; po, 10 mg/kg P.O.): 5.25 h
C[C@@H](Cc1c(F)c(F)cc(F)c1F)Nc1cc[nH]c(=O)c1-c1nc2cc3c(cc2[nH]1)C(=O)N(CCN(C)C)C3=O [Compound 2, (S)-6-(2-(Dimethylamino)ethyl)-2-(2-oxo-4-((1-(2,3,5,6-tetrafluorophenyl)propan-2-yl)amino)-1,2-dihydropyridin-3-yl)imidazo[4,5-f]isoindole-5,7(1H,6H)-dione]	14	14	12	12.2	0.436	25.8	14	1920	> 10							> 30000	< 0.2	3.6	> 17.8	IC50 (SUDHL-1 lymphoma cells; [8]): 2.74 µM; IC50 (NB-1 neuroblastoma cells; 3 days, WST-1, read-out: NB-1 IC50): 0.666 µM
C[C@@H](Cc1c(F)c(F)cc(F)c1F)Nc1cc[nH]c(=O)c1-c1nc2cc3c(cc2[nH]1)C(=O)N(c1cccnc1)C3=O [Compound 12, (S)-2-(2-oxo-4-((1-(2,3,5,6-tetrafluorophenyl)propan-2-yl)amino)-1,2-dihydropyridin-3-yl)-6-(pyridin-3-yl)imidazo[4,5-f]isoindole-5,7(1H,6H)-dione]	47.3	47	20	20.4			> 10000	> 10000		< 5.8	> 2	< 5.8	> 2	> 2	< 5.8	> 3000	< 0.2	< 0.2		
C[C@@H](Cc1c(F)c(F)cc(F)c1F)Nc1cc[nH]c(=O)c1-c1nc2cc3c(cc2[nH]1)C(O)N(c1cccnc1)C3=O (stereo partly drawn) [Compound 13, 7-Hydroxy-2-(2-oxo-4-4(((S)-1-(2,3,5,6-tetrafluorophenyl)propan-2-yl)amino)-1,2-dihydropyridin-3-yl)-6-(pyridin-3-yl)-6,7-dihydroimidazo[4,5-f]isoindol-5(1H)-one]			6				> 10000	787	> 3	7.89	1.46	8.77	1.32	0.629	18.4		< 0.2	1.9	> 9.5	
COC1c2cc3nc(-c4c(N[C@@H](C)Cc5c(F)c(F)cc(F)c5F)cc[nH]c4=O)[nH]c3cc2C(=O)N1c1cccnc1 (stereo partly drawn) [Compound 14, 7-Methoxy-2-(2-oxo-4-(((S)-1-(2,3,5,6-tetrafluorophenyl)propan-2-yl)amino)-1,2-dihydropyridin-3-yl)-6-(pyridin-3-yl)-6,7-dihydroimidazo[4,5-f]isoindol-5(1H)-one]	174	174	42	41.6			> 10000			< 5.8	> 2	< 5.8	> 2	1.71	6.76					
CC(Cc1cc(F)ccc1F)Nc1cc[nH]c(=O)c1-c1nc2cc3c(cc2[nH]1)CN(C)C3=O (stereo not shown) [Compound 33, 2-(4-(1-(2,5-Difluorophenyl)propan-2-ylamino)-2-oxo-1,2-dihydropyridin-3-yl)-6-methyl-6,7-dihydroimidazo[4,5-f]isoindol-5(1H)-one]	24.7			5.13	0.74	17.7						26.1	0.443	0.119	97.2	> 10000			0.8	IC50 (ALK; read-out: GTx-ALK IC50): 25 nM; IC50 (TrkA; read-out: GTx-TrKA IC50): 5 nM; IC50 (ROS; read-out: GTx-ROS IC50): 0.7 nM; IC50 (RET; read-out: GTx-RET IC50): 18 nM; IC50 (K299 lymphoma cells; read-out: GTx-K299 IC50): 532 nM; IC50 (U937 lymphoma cells; 3 days, WST-1, read-out: GTx-U937 IC50): > 10 µM; IC50 (SUDHL-1 lymphoma cells; 3 days, WST-1, read-out: GTx-SUDHL-1 IC50): 0.867 µM; Mouse LM-P1 CL ([1]; Phase I only, 0.5 μM): 12.82 µL/min/mg; Papp (10−6 cm/sec) A to B (Caco-2 cells): 1.7 10−6 cm/sec; Papp (10−6 cm/sec) B to A (Caco-2 cells): 1.4 10−6 cm/sec; Efflux Ratio (Caco-2 cells; Caco-2): 0.5
